{"source": "ChEMBL document CHEMBL3430850", "about": "“MMV Malaria Box gametocyte standard membrane feeding assay screening”"}
{"test": "(§1) MMV: Gametocytes from P. falciparum reporter strain NF54-deltaPf47-5'hsp70-GFP::Luc were exposed to serial dilutions of compounds for 24 hours. Subsequently, compounds were washed out and gametocytes were fed to Anopheles stephensi mosquitoes. Three compounds were tested at six dilutions in one experimental run. All conditions were tested in duplicate in two different experimental runs. Each run included duplicate feeders for vehicle (0.1% DMSO) and positive (10 uM dihydroartemisinin) controls. Eight days post-feeding, oocyst densities were determined by assessment of luminescence signals in homogenized mosquitoes. Up to 24 mosquitoes were analysed per feeder. Luminescence data from individual mosquitoes were normalized against the average signals from the vehicle control feeds that were included in each run. IC50 values were determined by fitting a four-parameter logistic regression model using maximum likelihood optimization to find the best fit.", "assay_type": "functional, Plasmodium falciparum", "conditions": "not given; call rule not given here"}
{"compound": "CC1CN(C(=O)c2sc3ccccc3c2Cl)CC(C)O1", "note": "(stereo not drawn)", "IC50": "Not active"}
{"compound": "OC(CNC1CCCCC1)Cn1c2ccc(I)cc2c2cc(I)ccc21", "note": "(stereo not drawn)", "IC50": "Not active"}
{"test": "as §1", "assay_type": "functional, Plasmodium falciparum", "conditions": "read-out: IC50", "units": {"IC50": "nM"}}
{"compound": "CN(C)CCCNc1c2ccccc2nc2ccccc12", "IC50": 1170}
{"compound": "COc1ccc(C2c3ccc4ccccc4c3Oc3ncn(CCCN(C)C)c(=N)c32)cc1", "note": "(stereo not drawn)", "IC50": 58.9}
{"compound": "COc1ccc(-c2c(C)nn3c(N)c(C#N)cnc23)cc1OC", "IC50": 3630}
{"compound": "CCOC(=O)c1cnc2ccc(CC)cc2c1O", "IC50": 110}
{"compound": "Cc1ccc(-c2cc3c(nn2)-c2ccccc2C3=O)cc1", "IC50": 1260}
{"compound": "CCOC(=O)C1=C(C)N=c2sc(=Cc3cc(Cl)ccc3O)c(=O)n2C1c1ccc(OC)cc1", "note": "(stereo not drawn)", "IC50": 3240}
{"compound": "COC(=O)c1ccc(C2C3=C(O)CC(c4ccc(F)cc4)CC3=Nc3ccccc3N2C(=O)c2ccccc2)cc1", "note": "(stereo not drawn)", "IC50": 8510}
{"compound": "Cc1sc2ncnc(Sc3nc4ccccc4[nH]3)c2c1C", "IC50": 1290}
{"compound": "CCN(CC)CCn1c(=N)n(CC(O)c2ccc(Cl)c(Cl)c2)c2ccccc21", "note": "(stereo not drawn)", "IC50": 1660}
{"compound": "O=C(NC1CCN(Cc2ccccc2)CC1)c1cc(C(=O)NC2CCN(Cc3ccccc3)CC2)cc(C(=O)NC2CCN(Cc3ccccc3)CC2)c1", "IC50": 1170}
{"compound": "Clc1cc(Br)ccc1-c1ccc(CNCC2CCNCC2)o1", "IC50": 74.1}
{"compound": "CCOC(=O)c1cn(CC)c2cc(N3CCCCC3)c(F)cc2c1=O", "IC50": 95.5}
{"compound": "CC(C)(C)c1ccc2c(c1)CN(Cc1ccc(Cl)cc1)CO2", "IC50": 589}
{"compound": "CC1=C(CC(=O)c2cccc([N+](=O)[O-])c2)C(=O)c2ccccc2C1=O", "IC50": 1410}
{"compound": "OC1CCCCC1C1(NC(=S)Nc2ccccc2)CCCCC1", "note": "(stereo not drawn)", "IC50": 1740}
{"compound": "CN(C)c1ccc(C(O)(c2ccc(N(C)C)cc2)c2ccc(N(C)C)cc2)cc1", "note": "[METHYLROSANILINE]", "IC50": 38.9}
